Values after ≈ are worked out from the molar mass of the structure shown.
Assays:
Micrococcus luteus = test: Antibiotic activity, filter paper disc agar diffusion MIC; type: cell-based; settings: filter paper discs on agar, 15 hours at 28°C
Procedure: The compounds of Formulae I, II, and IV and virginiamycin M₁ from Example 2 were assayed for antibiotic activity following a method described by Matsen and Barry, Manual of Clinical Microbiology, Lennette, Spaulding, and Truant, Eds., American Society for Microbiology, Washington, D.C., p. 418 (1974). The minimal inhibitory concentrations (MIC) were determined by applying serial dilutions of the compounds of Formulae I, III, and IV and virginiamycin M₁ to standard filter paper discs. The concent↑ation of the test compounds ↑anged f↑om […] to 3.0 µg per disc in 20 µl of diluent. The test organism, Micrococcus luteus, was innoculated on the surface of an agar based nutrient medium in petri plates and the discs placed on the surface of the medium. The nutrient media consisted of nutrient broth supplemented with 0.2% yeast extract and 1.5% agar. The innoculated plates were incubated for 15 hours at 28°C and the zones of inhibition determined. The MIC of each compound was determined by the method described in Matsen and Barry, supra.

Gastrin Receptor = target: T1, Gastrin Receptor (Cavia porcellus, UniProt H0VZC5); test: Gastrin receptor binding in guinea pig gastric glands (125I-gastrin); settings: ¹²⁵I-gastrin, 25°C for 30 minutes, read-out: IC₅₀
T1 construct: from tissue; host or cells: guinea pig gastric mucosal glands
T1 sequence (H0VZC5 1-426): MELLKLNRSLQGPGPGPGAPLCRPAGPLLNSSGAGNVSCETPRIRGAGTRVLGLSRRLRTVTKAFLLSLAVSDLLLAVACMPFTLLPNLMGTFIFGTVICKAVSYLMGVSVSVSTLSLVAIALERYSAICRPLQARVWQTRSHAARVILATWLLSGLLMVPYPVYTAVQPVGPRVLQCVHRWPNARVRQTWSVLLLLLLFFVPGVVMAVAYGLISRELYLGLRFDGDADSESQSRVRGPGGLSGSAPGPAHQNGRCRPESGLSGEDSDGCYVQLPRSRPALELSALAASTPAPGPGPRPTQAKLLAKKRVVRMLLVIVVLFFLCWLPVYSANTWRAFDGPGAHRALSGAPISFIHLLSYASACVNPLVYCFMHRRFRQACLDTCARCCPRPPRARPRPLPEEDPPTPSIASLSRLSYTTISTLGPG
Procedure: Guinea pig gastric mucosal glands were prepared by the procedure of Praissman et al., J. Receptor Res. 3:647 (1983). Stomachs from male Hartley guinea pigs (250-400 g body weight) were washed thoroughly and minced with fine scissors in HEPES buffer consisting of the following: 130 mM NaCl, 12 mM NaHCO₃, 3 mM NaH₂PO₄, 3 mM […], 3 mM K₂HPO₄, 2 mM MgSO₄, 1 mM CaCl₂, 5 mM glucose and 4 mM L-glutamine, 25 mM HEPES at pH 7.4. The minced tissues were washed and incubated in a 37°C shaker bath for 40 minutes, with HEPES buffer containing 0.1% collagenase and 0.1% bovine serum albumin (BSA), and bubbled with 95% O₂ and 5% CO₂. The tissues were passed twice through a 5 ml glass syringe to liberate the gastric glands, and then filtered through 200 mesh nylon. The filtered glands were centrifuged at 270 ^x g for 5 minutes and washed twice by resuspension and centrifugation.
The washed guinea pig gastric glands were resuspended in 25 ml of HEPES buffer containing 0.25 mg/ml of bacitracin. For binding studies, 14.2 µl of 50% MeOH/H₂O (for total binding) or gastrin (1 µM final concentration, for nonspecific binding) or broth or test compound from Examples 2, 3 or 4 and 20 µl of ¹²⁵I-gastrin (New England Nuclear [NEN], 20,000 cpm 20 µl) were added to 220 µl of gastric glands in triplicate tubes which were aerated with 95% O₂ and 5% CO₂ and capped. The reaction mixtures, after incubation at 25°C for 30 minutes in a shaking water bath, were filtered under reduced pressure on glass GF/B filters (Whatman) and immediately washed with 3 ^x 4 ml of HEPES buffer containing 0.1% BSA fraction V. The radioactivity on the filters was measured using a Beckman 5500 gamma counter for ¹²⁵I-gastrin.

| Structure (SMILES) | MIC (Micrococcus luteus) | IC50 (Gastrin Receptor) |
| --- | --- | --- |
| CC1=C\C=C\C(=O)Cc2nc(co2)C(=O)N2CCC=C2C(=O)O[C@H](C(C)C)[C@H](C)/C=C/C(=O)NC\C=C\1 [Compound III] | 250 µM (≈ 127 µg/mL) | 90 nM |
| CC1=C\CCC(=O)Cc2nc(co2)C(=O)N2CCC=C2C(=O)O[C@H](C(C)C)[C@H](C)/C=C/C(=O)NC\C=C\1 [IV] | 15 µM (≈ 7.64 µg/mL) | 360 nM |
| CC1=C\[C@@H](O)CC(=O)Cc2nc(co2)C(=O)N2CCC=C2C(=O)O[C@H](C(C)C)[C@H](C)/C=C/C(=O)NC\C=C\1 [Virginiamycin M₁, reference compound] | 1.5 µM (≈ 0.788 µg/mL) | 710 nM |

Now those with a lower IC50 (Gastrin Receptor), led by results:

| MIC (Micrococcus luteus) | IC50 (Gastrin Receptor) | Structure (SMILES) |
| --- | --- | --- |
| 90 µM (≈ 45.9 µg/mL) | 12 nM | CC1=C\C=C\[C@@H](O)Cc2nc(co2)C(=O)N2CCC=C2C(=O)O[C@H](C(C)C)[C@H](C)/C=C/C(=O)NC\C=C\1 [Compound I] |
| – | 13 nM | CC1=C\C=C\[C@H](O)Cc2nc(co2)C(=O)N2CCC=C2C(=O)O[C@H](C(C)C)[C@H](C)/C=C/C(=O)NC\C=C\1 [Compound II] |

Source: EP0269322B1, “Virginiamycin analogs” (Merck & Co., Inc., priority 1986, dated 1988)
